In US20210207099A1, “METHODS AND COMPOSITIONS FOR GENERATING CELLS OF ENDODERMAL LINEAGE AND BETA CELLS AND USES THEREOF” (priority 2018, published 2021):

Key:
Format in all cases: cell-based, human
[1] = tested on: plated stage 4 cells; assay: qRT-PCR and immunostaining of plated stage 4 cells treated with cytoskeletal modifying compounds
Source text: For experiments investigating the effects of plating pancreatic progenitors, cells were differentiated with the suspension protocol for stages 1-3. At the end of stage 3, clusters were single cell dispersed with TrypLE and plated onto tissue culture plates coated with various ECM proteins at 0.625×10^6 cells/cm^2. Differentiation media for the remainder of this hybrid protocol were the same as for the suspension protocol with the exception that Y-27632 and Activin A were omitted on days 2-5 of stage 4. Additional compounds were added as indicated in each experiment: 1 μM latrunculin A (Cayman Chemical, 10010630), 1 μM latrunculin B (Cayman Chemical, 10010631), 1 μM cytochalasin D (MilliporeSigma, C2618), 1 μM jasplakinolide (Cayman Chemical, 11705), 10 μM blebbistatin (MilliporeSigma, 203389), 1 μM nocodazole (Cayman Chemical, 13857), 1 μM Y-15 (Cayman Chemical, 14485), 10 μM Y-27632, and 10 μM GDC-0994 (Selleckchem, S7554). A variety of ECM coatings were initially tested with this plating methodology, including collagen I (Corning, 354249), collagen IV (Corning, 354245), fibronectin (Gibco, 33016-015), vitronectin (Gibco, A14700), matrigel (Corning, 356230), gelatin (Fisher, G7-500), and laminins 111, 121, 211, 221, 411, 421, 511, and 521 (Biolamina, LNKT-0201). All subsequent experiments with this hybrid protocol were performed on collagen I.
(§1) Brightfield images were taken with a Leica DMi1 inverted light microscope, and fluorescence images were captured with a Nikon A1Rsi confocal microscope. For immunostaining, cells were fixed with 4% paraformaldehyde (PFA) at room temperature for 30 minutes. They were then blocked and permeabilized for 45 minutes at room temperature with an immunocytochemistry (ICC) solution consisting of 0.1% triton X (Acros Organics, 327371000) and 5% donkey serum (Jackson Immunoresearch, 017000-121) in PBS (Corning, 21-040-CV). Samples were then incubated with primary antibodies diluted in ICC solution overnight at 4° C., washed with ICC, incubated with secondary antibodies diluted in ICC for 2 hours at room temperature, and stained with DAPI for 15 minutes at room temperature. For histological sectioning, whole SC-β cell clusters generated with the planar protocol and mouse kidneys containing transplanted cells were fixed overnight with 4% PFA at 4° C. The in vitro clusters were also embedded in Histogel (Thermo Scientific, hg-4000-012). These samples were then paraffin-embedded and sectioned by the Division of Comparative Medicine (DCM) Research Animal Diagnostic Laboratory Core at Washington University in St. Louis. Paraffin was removed from sectioned samples with Histoclear (Thermo Scientific, C78-2-G), and antigen retrieval was carried out in a pressure cooker (Proteogenix, 2100 Retriever) with 0.05 M EDTA (Ambion, AM9261). Slides were blocked and permeabilized with ICC solution for 45 minutes, incubated with primary antibodies in ICC solution overnight at 4° C., and incubated with secondary antibodies for 2 hours at room temperature. Slides were then sealed with DAPI Fluoromount-G (SouthernBiotech, 0100-20).
RNA was extracted from either whole clusters or cells directly on the plate with the RNeasy Mini Kit (Qiagen, 74016). Samples were treated with a DNAse kit (Qiagen, 79254) during extraction. The High Capacity cDNA Reverse Transcriptase Kit (Applied Biosystems, 4368814) was used to synthesize cDNA on a thermocycler (Applied Biosystems, A37028). The PowerUp SYBR Green Master Mix (Applied Biosystems, A25741) was used on a StepOnePlus (Applied Biosystems), and real time PCR results were analyzed using a ΔΔCt methodology. TBP and GUSB were both used as housekeeping genes. Primer sequences were as follows.

[2] = tested on: F-actin; assay: F-actin staining and G/F actin ratio by western blot; settings: 1 μM for 24 hours, plated stage 4 cells
Description: as §1
G/F actin ratio was determined by western blot following the instructions of the G-actin/F-actin In Vivo Assay Kit (Cytoskeleton, Inc, BK037). Western blot was visualized using SuperSignal West Pico PLUS Chemiluminescent substrate (ThermoScientific, 34577) and the Odyssey FC (LI-COR) imager.

[3] = tested on: HUES8 cells differentiated with the planar protocol; assay: Latrunculin A in the completely planar SC-β cell differentiation protocol
Description: Planar protocol: 24 hours after passaging, cells seeded onto 6 or 24-well plates at 0.313-0.521×10^6 cells/cm^2 were differentiated with a new 6 stage protocol using the following formulations, with media changes every day. Stage 1 (4 days): BE1 media+100 ng/mL Activin A+3 μM CHIR99021 for the first 24 hours, followed with 3 days of BE1 containing 100 ng/mL Activin A only. Stage 2 (2 days): BE2 media+50 ng/mL KGF. Stage 3 (2 days): BE3+50 ng/mL KGF, 200 nM LDN193189, 500 nM TPPB (Tocris, 53431), 2 μM retinoic acid, and 0.25 μM SANT1. Stage 4 (4 days): BE3+50 ng/mL KGF, 200 nM LDN193189, 500 nM TPPB, 0.1 μM retinoic acid, and 0.25 μM SANT1. Stage 5 (7 days): S5 media+10 μM ALK5i II+20 ng/mL Betacellulin+0.1 μM retinoic acid+0.25 μM SANT1+1 μM T3+1 μM XXI. 1 μM Latrunculin A was added to this media for the first 24 hours only. Stage 6 (7-25 days): Cultures were kept on the plate with ESFM for the first 7 days. To move to suspension culture, cells could be single cell dispersed with TrypLE and placed in 6 mL ESFM within a 6-well plate at a concentration of 4-5 million cells/well on an orbital shaker at 100 RPM. Assessments were performed 5-8 days after cluster aggregation.
Cells were single-cell dispersed with TrypLE and fixed with 4% PFA for 30 minutes. Cells were then washed with PBS and incubated with ICC solution for 45 minutes at room temperature, incubated with primary antibodies overnight at 4° C., and incubated with secondary antibodies for 2 hours at room temperature. […]

[4] = tested on: plated cells of the SC-β cell protocol; assay: Bulk RNA sequencing at stage 6 of plated cells treated with latrunculin A
Description: Cells generated with the suspension protocol were single-cell dispersed from clusters with TrypLE at the end of stage 3 and seeded onto collagen 1 coated 24-well plates at 0.625×10^6 cells/cm^2. Either 0.5 μM latrunculin A was added throughout the entirety of stage 4 or 1 μM latrunculin A was added for the first 24 hours of stage 5. After two weeks in stage 6, RNA was extracted with the RNeasy Mini Kit (Qiagen, 74016), including a DNase treatment (Qiagen, 79254) during extraction. Samples were delivered to Washington University in St. Louis Genome Technology Access Center for library preparation and sequencing. Samples were prepared by RNA depletion using Ribo-Zero according to library kit manufacturer's protocol, indexed, pooled, and sequenced on an Illumine HiSeq.
Differential gene expression analysis was performed using EdgeR. DGEList was used to create the count object and normalized the data using the trimmed mean M-values (TMM) method with calcNormFactors. Pairwise comparisons were performed using exactTest and used topTags to obtain differentially expressed genes and their respective log fold change (log FC) and adjusted p-value (FDR). These values were used to generate volcano plots using ggplot2. Hierarchical clustering and heatmaps were performed and generated with heatmap.2 (gplots) using log CPM calculated expression levels. […]

[5] = 1 μM for the first 24 hours of stage 5

## C/C1=C/C(=O)O[C@@H]2C[C@@H](CC[C@H](C)/C=C\C=C\CC1)O[C@@](O)([C@@H]1CSC(=O)N1)C2 [latrunculin A]
[1]; 1 μM, plated cells at the end of stage 4
  NEUROG3+ and NKX6-1+ cells by immunostaining: increases NEUROG3+ and decreases NKX6-1+ cells
[1]; added during stage 4, qRT-PCR
  dose response of NEUROG3 expression: highly dose-dependent
[1]; compound screen, plated stage 4 cells, qRT-PCR
  expression of NEUROG3 and downstream targets NKX2.2 and NEUROD1: greatly increased expression of NEUROG3
[1]; latrunculin treatment during stage 4
  NKX6-1 expression: followed the reverse trend as NEUROG3
[2]
  F-actin polymerization state: almost complete depolymerization of F-actin
  G/F-actin ratio: increased G/F-actin ratio
  PDX1 expression by immunostaining: maintenance of PDX1 expression
[3]; [5]
  endocrine induction, SC-β cell specification and off-target lineages: greatly increased endocrine induction and SC-β cell specification while decreasing off-target lineages
[3]; added during stage 4 (0.5 μM)
  NKX6-1 expression: decreasing NKX6-1 expression
  premature expression of NEUROG3 and its downstream targets: dramatically increased premature expression of NEUROG3
[4]; 0.5 μM throughout stage 4
  gene expression profile at stage 6: increasing intestine and stomach gene expression
[4]; [5]
  gene expression profile at stage 6: increasing expression of β cell and islet genes
